The Ki is a dissociation constant, usually derived from enzyme kinetics or from competition with a known ligand. Low readings indicate a stronger hold on the target, high ones a looser hold on the target.

Our source for the Ki values is patent US8796289B2 (AbbVie Inc., priority 2011, dated 2014).

Sequence of GST-tagged-Wee1 kinase (P30291 whole entry): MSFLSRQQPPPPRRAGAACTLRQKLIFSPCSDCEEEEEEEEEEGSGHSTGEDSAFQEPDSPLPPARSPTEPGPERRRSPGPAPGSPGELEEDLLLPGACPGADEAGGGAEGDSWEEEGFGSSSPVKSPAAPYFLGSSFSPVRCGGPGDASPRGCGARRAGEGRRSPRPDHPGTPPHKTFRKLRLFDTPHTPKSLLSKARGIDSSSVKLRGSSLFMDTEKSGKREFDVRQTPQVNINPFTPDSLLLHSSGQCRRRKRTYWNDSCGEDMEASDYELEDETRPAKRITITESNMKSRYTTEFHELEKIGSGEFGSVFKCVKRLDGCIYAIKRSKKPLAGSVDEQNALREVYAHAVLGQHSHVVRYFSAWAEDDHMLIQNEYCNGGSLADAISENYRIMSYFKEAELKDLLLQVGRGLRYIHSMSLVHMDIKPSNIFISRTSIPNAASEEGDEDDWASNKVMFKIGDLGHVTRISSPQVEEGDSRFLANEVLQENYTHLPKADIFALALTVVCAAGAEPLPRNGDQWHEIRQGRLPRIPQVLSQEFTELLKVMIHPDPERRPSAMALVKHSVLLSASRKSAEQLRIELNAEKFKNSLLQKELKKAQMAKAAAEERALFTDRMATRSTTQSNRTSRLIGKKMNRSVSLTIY

This test deals with GST-tagged-Wee1 kinase (Homo sapiens, UniProt P30291). The experiment in a line: Wee1 time-resolved fluorescence equilibrium binding assay (displacement of Oregon Green-labeled ATP-competitive kinase probe). How it is done:
Wee1 kinase was assayed using a time-resolved fluorescence equilibrium binding assay monitoring displacement of a rapidly reversible Oregon Green-labeled ATP-competitive kinase probe (N-(2-(2-(2-(4-(4-(5-chloro-4-(2-(1-hydroxycyclobutyl)thiazol-5-yl)-1H-pyrrolo[2,3-b]pyridin-2-yl)phenyl)piperazin-1-yl)ethoxy)ethoxy)ethyl)-2′,7′-difluoro-3′,6′-dihydroxy-3-oxo-3H-spiro[isobenzofuran-1,9′-xanthene]-5-carboxamide) by competitive Wee1 inhibitors.
`COc1cc(Nc2ncc3c(=O)n(-c4ccccc4C)nc(-c4cccs4)c3n2)ccc1N1CCN(C(C)C)CC1` [Example 132, 2-{[4-(4-isopropylpiperazin-1-yl)-3-methoxyphenyl]amino}-6-(2-methylphenyl)-8-(2-thienyl)pyrimido[4,5-d]pyridazin-5(6H)-one]: the Ki came out at 0.7 nM. With `Cc1ccccc1-n1nc(-c2ccco2)c2nc(Nc3ccc4c(c3)CN(C)CC43CC3)ncc2c1=O` [Example 145, 8-(2-furyl)-2-[(2′-methyl-2′,3′-dihydro-1′H-spiro[cyclopropane-1,4′-isoquinolin]-7′-yl)amino]-6-(2-methylphenyl)pyrimido[4,5-d]pyridazin-5(6H)-one], the Ki turned out to be 0.3 nM. On to `CN1CCN(c2ccc(Nc3ncc4c(=O)n(-c5ncccc5Cl)nc(-c5cn(C)cn5)c4n3)cc2)CC1` [Example 343, 6-(3-chloropyridin-2-yl)-8-(1-methyl-1H-imidazol-4-yl)-2-{[4-(4-methylpiperazin-1-yl)phenyl]amino}pyrimido[4,5-d]pyridazin-5(6H)-one], for which the Ki turned out to be 6.9 nM.

As to `CNC(C)c1cccc(-c2nn(-c3c(Cl)cccc3Cl)c(=O)c3cnc(Nc4ccc(N5CCN(C)CC5)cc4)nc23)c1` (centres unmarked) [Example 186, 6-(2,6-dichlorophenyl)-8-{3-[1-(methylamino)ethyl]phenyl}-2-{[4-(4-methylpiperazin-1-yl)phenyl]amino}pyrimido[4,5-d]pyridazin-5(6H)-one], the affinity corresponds to a Ki of 0.02 nM. The figure for `CC1(C)CNCc2cc(Nc3ncc4c(=O)n(C5CCCCC5)nc(-c5ccccn5)c4n3)ccc21` [Example 294, 6-cyclohexyl-2-[(4,4-dimethyl-1,2,3,4-tetrahydroisoquinolin-7-yl)amino]-8-(pyridin-2-yl)pyrimido[4,5-d]pyridazin-5(6H)-one] is 629 nM; for `Cc1nn(-c2c(Cl)cncc2Cl)c(=O)c2cnc(Nc3ccc4c(c3)CCNC4)nc12` [Example 448, 6-(3,5-dichloropyridin-4-yl)-8-methyl-2-(1,2,3,4-tetrahydroisoquinolin-6-ylamino)pyrimido[4,5-d]pyridazin-5(6H)-one] it is 0.5 nM.

`CN1CCN(c2ccc(Nc3ncc4c(=O)n(-c5ccccc5Cl)nc(-c5ccncc5)c4n3)cc2)CC1` [Example 155, 6-(2-chlorophenyl)-2-{[4-(4-methylpiperazin-1-yl)phenyl]amino}-8-(pyridin-4-yl)pyrimido[4,5-d]pyridazin-5(6H)-one] registered an inhibition constant Ki of 0.4 nM. Consider `Cc1ccccc1-n1nc(-c2ccccc2F)c2nc(Nc3ccc(N4CCN(C)CC4)cc3)ncc2c1=O` [Example 36, 8-(2-fluorophenyl)-6-(2-methylphenyl)-2-{[4-(4-methylpiperazin-1-yl)phenyl]amino}pyrimido[4,5-d]pyridazin-5(6H)-one], for which the Ki came out at 3 nM. The figure for `Cc1nn(-c2c(Cl)cccc2Cl)c(=O)c2cnc(Nc3cccc(N4CCN(CCCCl)CC4)c3)nc12` [Example 507, 2-({3-[4-(3-chloropropyl)piperazin-1-yl]phenyl}amino)-6-(2,6-dichlorophenyl)-8-methylpyrimido[4,5-d]pyridazin-5(6H)-one] is 2.4 nM. As for `CC(=O)N1CCc2cc(Nc3ncc4c(=O)n(-c5c(Cl)cccc5Cl)nc(C(F)F)c4n3)ccc2C1` [Example 476, 2-[(2-acetyl-1,2,3,4-tetrahydroisoquinolin-6-yl)amino]-6-(2,6-dichlorophenyl)-8-(difluoromethyl)pyrimido[4,5-d]pyridazin-5(6H)-one], the Ki was found to be 0.17 nM. `Cc1nn(-c2c(Cl)cccc2Cl)c(=O)c2cnc(Nc3ccc4c(c3)CNCC43CC3)nc12` [Example 300, 6-(2,6-dichlorophenyl)-2-(2′,3′-dihydro-1′H-spiro[cyclopropane-1,4′-isoquinolin]-7′-ylamino)-8-methylpyrimido[4,5-d]pyridazin-5(6H)-one]: the inhibition constant (Ki) is 0.12 nM. Compound `Cc1cc(Nc2ncc3c(=O)n(-c4c(Cl)cccc4Cl)nc(-c4cnn(C)c4)c3n2)ccc1N1CCCN(C)CC1` [Example 150, 6-(2,6-dichlorophenyl)-2-{[3-methyl-4-(4-methyl-1,4-diazepan-1-yl)phenyl]amino}-8-(1-methyl-1H-pyrazol-4-yl)pyrimido[4,5-d]pyridazin-5(6H)-one] displayed a Ki of 0.1 nM. The result for `Cc1ccccc1-n1nc(-c2cccc(Br)c2)c2nc(Nc3ccc(N4CCN(C)CC4)cc3)ncc2c1=O` [Example 66, 8-(3-bromophenyl)-6-(2-methylphenyl)-2-{[4-(4-methylpiperazin-1-yl)phenyl]amino}pyrimido[4,5-d]pyridazin-5(6H)-one] reads 4 nM; that for `CN1Cc2cc(Nc3ncc4c(=O)n(-c5c(Cl)cccc5Cl)nc(C5CC5)c4n3)ccc2C2(CC2)C1` [Example 389, 8-cyclopropyl-6-(2,6-dichlorophenyl)-2-[(2′-methyl-2′,3′-dihydro-1′H-spiro[cyclopropane-1,4′-isoquinolin]-7′-yl)amino]pyrimido[4,5-d]pyridazin-5(6H)-one], 0.28 nM; that for `CN1CCN(c2ccc(Nc3ncc4c(=O)n(-c5c(Cl)cccc5Cl)nc(-c5cccc(CN6CCCCC6)c5)c4n3)cc2)CC1` [Example 157, 6-(2,6-dichlorophenyl)-2-{[4-(4-methylpiperazin-1-yl)phenyl]amino}-8-[3-(piperidin-1-ylmethyl)phenyl]pyrimido[4,5-d]pyridazin-5(6H)-one], 0.05 nM.

As for `Cc1ccccc1-n1nc(-c2ccccc2)c2nc(Nc3ccc(N4CCN(C)CC4)cc3)ncc2c1=O` [Example 28, 6-(2-methylphenyl)-2-{[4-(4-methylpiperazin-1-yl)phenyl]amino}-8-phenylpyrimido[4,5-d]pyridazin-5(6H)-one], the Ki stood at 0.8 nM. Take `CN1CCN(c2ccc(Nc3ncc4c(=O)n(-c5c(Cl)cccc5Cl)nc(-c5ccsc5)c4n3)cc2)CC1` [Example 97, 6-(2,6-dichlorophenyl)-2-{[4-(4-methylpiperazin-1-yl)phenyl]amino}-8-(3-thienyl)pyrimido[4,5-d]pyridazin-5(6H)-one]: the inhibitory constant (Ki) amounted to 0.06 nM. Consider `O=c1c2cnc(Nc3ccc4c(c3)CNCC43CC3)nc2c(-c2ccncc2)nn1-c1ccncc1Cl` [Example 383, 6-(3-chloropyridin-4-yl)-2-(2′,3′-dihydro-1′H-spiro[cyclopropane-1,4′-isoquinolin]-7′-ylamino)-8-(pyridin-4-yl)pyrimido[4,5-d]pyridazin-5(6H)-one], for which the Ki turned out to be 1.1 nM. In the case of `CCc1nn(-c2c(Cl)cccc2Cl)c(=O)c2cnc(Nc3ccc4c(c3)CN(C)CC43CC3)nc12` [Example 402, 6-(2,6-dichlorophenyl)-8-ethyl-2-[(2′-methyl-2′,3′-dihydro-1′H-spiro[cyclopropane-1,4′-isoquinolin]-7′-yl)amino]pyrimido[4,5-d]pyridazin-5(6H)-one], the affinity corresponds to a Ki of 0.23 nM. The compound `CN1CCN(c2ccc(Nc3ncc4c(=O)n(-c5c(Cl)cccc5Cl)nc(-c5cccc(C(=O)N(C)C)c5)c4n3)cc2)CC1` [Example 189, 3-[6-(2,6-dichlorophenyl)-2-{[4-(4-methylpiperazin-1-yl)phenyl]amino}-5-oxo-5,6-dihydropyrimido[4,5-d]pyridazin-8-yl]-N,N-dimethylbenzamide] gave a Ki of 0.02 nM. The compound `Cc1nn(-c2c(Cl)cccc2Cl)c(=O)c2cnc(Nc3ccc4c(c3)CN(S(N)(=O)=O)CC43CC3)nc12` [Example 436, 7′-{[6-(2,6-dichlorophenyl)-8-methyl-5-oxo-5,6-dihydropyrimido[4,5-d]pyridazin-2-yl]amino}-1′H-spiro[cyclopropane-1,4′-isoquinoline]-2′(3′H)-sulfonamide] came in with a Ki of 0.65 nM. For `C=CCn1nc(Cc2ccccc2)c2nc(Nc3ccc(N4CCN(C)CC4)cc3)ncc2c1=O` [Example 22], the Ki is 700 nM.

`C=CCn1nc(-c2ccco2)c2nc(Nc3ccc(N4CCCC4=O)cc3)ncc2c1=O` [Example 269, 8-(furan-2-yl)-2-{[4-(2-oxopyrrolidin-1-yl)phenyl]amino}-6-(prop-2-en-1-yl)pyrimido[4,5-d]pyridazin-5(6H)-one] had a Ki of 58 nM.

In turn, `CN1CCN(c2ccc(Nc3ncc4c(=O)n(-c5c(Cl)cccc5Cl)nc(-c5ccc(C(=O)N(C)C)cc5)c4n3)cc2)CC1` [Example 291, 4-[6-(2,6-dichlorophenyl)-2-{[4-(4-methylpiperazin-1-yl)phenyl]amino}-5-oxo-5,6-dihydropyrimido[4,5-d]pyridazin-8-yl]-N,N-dimethylbenzamide] had a Ki of 0.38 nM. `Cc1nn(-c2c(Cl)cccc2Cl)c(=O)c2cnc(Nc3ccc4c(c3)CNC4)nc12` [Example 451, 6-(2,6-dichlorophenyl)-2-(2,3-dihydro-1H-isoindol-5-ylamino)-8-methylpyrimido[4,5-d]pyridazin-5(6H)-one] returned a Ki of 0.19 nM.

`O=c1c2cnc(Nc3ccc4c(c3)CNCC43CC3)nc2c(-c2ccccn2)nn1-c1ccncc1Cl` [Example 385, 6-(3-chloropyridin-4-yl)-2-(2′,3′-dihydro-1′H-spiro[cyclopropane-1,4′-isoquinolin]-7′-ylamino)-8-(pyridin-2-yl)pyrimido[4,5-d]pyridazin-5(6H)-one] displayed a Ki of 7.2 nM. In turn, `CCc1nn(-c2c(Cl)cccc2Cl)c(=O)c2cnc(Nc3ccc4c(c3)CNCC4)nc12` [Example 403, 6-(2,6-dichlorophenyl)-8-ethyl-2-(1,2,3,4-tetrahydroisoquinolin-7-ylamino)pyrimido[4,5-d]pyridazin-5(6H)-one] yielded a Ki of 0.21 nM. For `O=c1c2cnc(Nc3ccc(N4CCNCC4)cc3)nc2c(-c2ccccn2)nn1-c1ccccn1` [Example 285, 2-{[4-(piperazin-1-yl)phenyl]amino}-6,8-di(pyridin-2-yl)pyrimido[4,5-d]pyridazin-5(6H)-one], the Ki came out at 8.4 nM. In turn, `CN1CCN(c2ccc(Nc3ncc4c(=O)n(-c5cnccc5O)nc(-c5ccccn5)c4n3)cc2)CC1` [Example 310, 6-(4-hydroxypyridin-3-yl)-2-{[4-(4-methylpiperazin-1-yl)phenyl]amino}-8-(pyridin-2-yl)pyrimido[4,5-d]pyridazin-5(6H)-one] came in with a Ki of 3.6 nM.
